{
  "source": "patent US20180344726A1",
  "about": "“ABUSE RESISTANT TRANSDERMAL DELIVERY DEVICES AND COMPOSITIONS COMPRISING AN OPIOID AGONIST AND A NON-TRANSDERMALLY DELIVERED N-OXIDE DERIVATIVE OF AN OPIOID ANTAGONIST FOR THE TREATMENT OF PAIN” (priority 2015, published 2018)",
  "key": {"[1]": {"conditions": "+37° C.; for Mean concentration of Naloxone N-oxide in human whole blood samples / Mean concentration of Naloxone N-oxide in human plasma samples: mean of n=3; for Concentrations of Naloxone N-oxide in human plasma samples / Concentrations of Naloxone N-oxide in human whole blood samples: single replicates", "from_the_text": "Analytical procedures followed were based on those outlined in the “Guideline on Bioanalytical Method Validation”, EMA, CHMP, EWP, July 2011 and “Reflection paper for laboratories that perform the analysis or evaluation of clinical trial samples, 28 Feb. 2012, EMA/INS/GCP/532137/2010” with reference to the “Guidance for Industry, Bioanalytical Method Validation” recommendations issued by the U.S. Department of Health and Human Services, Food and Drug Administration, Center for Drug Evaluation and Research (CDER), Center for Veterinary Medicine (CVM), May 2001, BP.\nControl blank human plasma and blood containing K2EDTA as an anti-coagulant, was obtained from Clinical Trials Laboratory Service or BAS volunteers and was stored at nominally −20° C. and +4° C., respectively, when not in use. The mass spectrometer used was an Applied Biosystems AP15000 with the following settings:\nAll instrument control, data collection, peak area integration and storage was performed using Analyst (version 1.5.2). Peak areas were then imported into Watson LIMS (version 7.2.0.02) for regression and quantification. The mass spectrometer response (peak area ratio of analyte to internal standard) of each calibration standard was calculated by Watson LIMS and plotted against the nominal (prepared) concentration. A weighted (1/x^2) least squares linear regression analysis was used to calculate an equation of the calibration line.\nAny concentrations below this level are reported as below the limit of quantification (BLQ). Samples with initial concentrations above the upper limit of quantification ([…]) were re-injected with a reduced injection volume (alongside QC High with reduced injection volume) and sample concentrations interpolated against a calibration curve injected with normal injection volume."}, "[2]": {"assay": "pKa analysis by pH-metric triple titration", "type": "physicochemical", "conditions": "[…] C., […] KCl", "procedure": "pKa analysis was performed using a pH-metric method. […] No precipitation or degradation was observed and two pKas were determined from the potentiometric data. Log P was determined using the potentiometric (pH-metric method). The sample was titrated in various ratios of octanol/water in two titrations covering the pH range 2.0-12.0 at concentrations of 1.9-1.1 mM. The shift of the aqueous pKas in the presence of octanol was used to determine the log P of the neutral species."}, "[3]": {"assay": "In vitro skin permeation from prototype transdermal patches (Franz cell)", "type": "in vitro ADME, human", "conditions": "patches with naloxone N-oxide:opioid agonist 1:1, 3:1 or 5:1 by weight", "procedure": "Naloxone N-oxide was incorporated into a prototype transdermal patch along with an opioid agonist. […] Batches of patches were prepared by weighing the appropriate amounts of the opioid agonist, Naloxone N-oxide and dry patch matrix of poly(meth)acrylate and dissolving in ethylacetate. The matrix solvent system was added and stirred for 30 minutes on a magnetic stirrer to yield a homogenous mixture. After mixing, the drug/polymer mixture was hand cast onto a release liner, Loparex Prime Liner FL 2000. Casting was carried out with a casting knife of variable width to achieve a target dry area weight matrix of 55 g/m^2. The cast was then dried at room temperature for 10 minutes, transferred to a convection oven and dried at 70° C. for 15 minutes and at 100° C. for 5 minutes. Finally the dried casts were hand-laminated with an occlusive backing, Scotchpak 9738, and patches were cut out of the laminate with 0.82 cm^2 cutting dies for skin permeation and 5 cm^2 for stability experiments.\nThe in vitro skin permeation of opioid agonist from each of the patches was tested using a Franz cell as described above."}, "[4]": {"conditions": "spiked with Naloxone-N-oxide 50 ng/mL, 30 minutes"}, "[5]": {"conditions": "spiked with Naloxone-N-oxide 50 ng/mL, 45 minutes"}, "[6]": {"conditions": "spiked with Naloxone-N-oxide 50 ng/mL, 60 minutes"}, "[7]": {"conditions": "spiked with Naloxone-N-oxide 50 ng/mL, 120 minutes"}, "[8]": {"conditions": "spiked with Naloxone-N-oxide 250 ng/mL, 0 minutes"}, "[9]": {"conditions": "spiked with Naloxone-N-oxide 250 ng/mL, 10 minutes"}, "[10]": {"conditions": "spiked with Naloxone-N-oxide 250 ng/mL, 20 minutes"}, "[11]": {"conditions": "spiked with Naloxone-N-oxide 250 ng/mL, 30 minutes"}, "[12]": {"conditions": "spiked with Naloxone-N-oxide 250 ng/mL, 45 minutes"}, "[13]": {"conditions": "spiked with Naloxone-N-oxide 250 ng/mL, 60 minutes"}, "[14]": {"conditions": "spiked with Naloxone-N-oxide 250 ng/mL, 120 minutes"}},
  "note": "Values joined by “and” are separate entries in the source; they are usually repeats but may differ in a detail not shown here. Equal values may be shown once. Read-outs that look alike come from different tables or passages of the source.",
  "data": [
    {"smiles": "C=CC[N+]1([O-])CC[C@]23c4c5ccc(O)c4O[C@H]2C(=O)CC[C@@]3(O)[C@H]1C5", "note": "(stereo partly shown) [Naloxone N-oxide]", "values": [
      {"measurement": "Mean concentration of Naloxone N-oxide in human whole blood samples", "setting": "[1]; [4]", "value": 16.0, "unit": "ng/mL"},
      {"measurement": "Concentrations of Naloxone N-oxide in human plasma samples", "setting": "[1]; [4]", "value": "46.9 ng/mL and 44.1 ng/mL and 47.9 ng/mL"},
      {"measurement": "Concentrations of Naloxone N-oxide in human whole blood samples", "setting": "[1]; [4]", "value": "15.9 ng/mL and 15.2 ng/mL and 16.9 ng/mL"},
      {"measurement": "Mean concentration of Naloxone N-oxide in human plasma samples", "setting": "[1]; [5]", "value": 47.4, "unit": "ng/mL"},
      {"measurement": "Mean concentration of Naloxone N-oxide in human whole blood samples", "setting": "[1]; [5]", "value": 14.4, "unit": "ng/mL"},
      {"measurement": "Concentrations of Naloxone N-oxide in human plasma samples", "setting": "[1]; [5]", "value": "47.6 ng/mL and 49.1 ng/mL and 45.4 ng/mL"},
      {"measurement": "Concentrations of Naloxone N-oxide in human whole blood samples", "setting": "[1]; [5]", "value": "14.1 ng/mL (2×) and 15.1 ng/mL"},
      {"measurement": "Mean concentration of Naloxone N-oxide in human plasma samples", "setting": "[1]; [6]", "value": 48.0, "unit": "ng/mL"},
      {"measurement": "Mean concentration of Naloxone N-oxide in human whole blood samples", "setting": "[1]; [6]", "value": 10.4, "unit": "ng/mL"},
      {"measurement": "Concentrations of Naloxone N-oxide in human plasma samples", "setting": "[1]; [6]", "value": "50.0 ng/mL and 46.0 ng/mL and 48.1 ng/mL"},
      {"measurement": "Concentrations of Naloxone N-oxide in human whole blood samples", "setting": "[1]; [6]", "value": "10.7 ng/mL and 10.6 ng/mL and 10.0 ng/mL"},
      {"measurement": "Mean concentration of Naloxone N-oxide in human plasma samples", "setting": "[1]; [7]", "value": 46.1, "unit": "ng/mL"},
      {"measurement": "Mean concentration of Naloxone N-oxide in human whole blood samples", "setting": "[1]; [7]", "value": 4.24, "unit": "ng/mL"},
      {"measurement": "Concentrations of Naloxone N-oxide in human plasma samples", "setting": "[1]; [7]", "value": "47.6 ng/mL and 43.9 ng/mL and 46.8 ng/mL"},
      {"measurement": "Concentrations of Naloxone N-oxide in human whole blood samples", "setting": "[1]; [7]", "value": "3.99 ng/mL and 4.51 ng/mL and 4.22 ng/mL"},
      {"measurement": "Mean concentration of Naloxone N-oxide in human plasma samples", "setting": "[1]; [8]", "value": 233, "unit": "ng/mL"},
      {"measurement": "Mean concentration of Naloxone N-oxide in human whole blood samples", "setting": "[1]; [8]", "value": 255, "unit": "ng/mL"},
      {"measurement": "Concentrations of Naloxone N-oxide in human plasma samples", "setting": "[1]; [8]", "value": "236 ng/mL and 233 ng/mL and 229 ng/mL"},
      {"measurement": "Concentrations of Naloxone N-oxide in human whole blood samples", "setting": "[1]; [8]", "value": "245 ng/mL and 254 ng/mL and 265 ng/mL"},
      {"measurement": "Mean concentration of Naloxone N-oxide in human plasma samples", "setting": "[1]; [9]", "value": 225, "unit": "ng/mL"},
      {"measurement": "Mean concentration of Naloxone N-oxide in human whole blood samples", "setting": "[1]; [9]", "value": 141, "unit": "ng/mL"},
      {"measurement": "Concentrations of Naloxone N-oxide in human plasma samples", "setting": "[1]; [9]", "value": "218 ng/mL and 234 ng/mL and 223 ng/mL"},
      {"measurement": "Concentrations of Naloxone N-oxide in human whole blood samples", "setting": "[1]; [9]", "value": "135 ng/mL and 143 ng/mL and 144 ng/mL"},
      {"measurement": "Mean concentration of Naloxone N-oxide in human plasma samples", "setting": "[1]; [10]", "value": 232, "unit": "ng/mL"},
      {"measurement": "Mean concentration of Naloxone N-oxide in human whole blood samples", "setting": "[1]; [10]", "value": 111, "unit": "ng/mL"},
      {"measurement": "Concentrations of Naloxone N-oxide in human plasma samples", "setting": "[1]; [10]", "value": "228 ng/mL and 241 ng/mL and 226 ng/mL"},
      {"measurement": "Concentrations of Naloxone N-oxide in human whole blood samples", "setting": "[1]; [10]", "value": "107 ng/mL and 111 ng/mL and 115 ng/mL"},
      {"measurement": "Mean concentration of Naloxone N-oxide in human plasma samples", "setting": "[1]; [11]", "value": 229, "unit": "ng/mL"},
      {"measurement": "Mean concentration of Naloxone N-oxide in human whole blood samples", "setting": "[1]; [11]", "value": 97.6, "unit": "ng/mL"},
      {"measurement": "Concentrations of Naloxone N-oxide in human plasma samples", "setting": "[1]; [11]", "value": "231 ng/mL and 229 ng/mL and 226 ng/mL"},
      {"measurement": "Concentrations of Naloxone N-oxide in human whole blood samples", "setting": "[1]; [11]", "value": "99.0 ng/mL and 96.8 ng/mL and 97.1 ng/mL"},
      {"measurement": "Mean concentration of Naloxone N-oxide in human plasma samples", "setting": "[1]; [12]", "value": 228, "unit": "ng/mL"},
      {"measurement": "Mean concentration of Naloxone N-oxide in human whole blood samples", "setting": "[1]; [12]", "value": 81.4, "unit": "ng/mL"},
      {"measurement": "Concentrations of Naloxone N-oxide in human plasma samples", "setting": "[1]; [12]", "value": "225 ng/mL and 228 ng/mL and 230 ng/mL"},
      {"measurement": "Concentrations of Naloxone N-oxide in human whole blood samples", "setting": "[1]; [12]", "value": "78.2 ng/mL and 80.8 ng/mL and 85.3 ng/mL"},
      {"measurement": "Mean concentration of Naloxone N-oxide in human plasma samples", "setting": "[1]; [13]", "value": 231, "unit": "ng/mL"},
      {"measurement": "Mean concentration of Naloxone N-oxide in human whole blood samples", "setting": "[1]; [13]", "value": 69.0, "unit": "ng/mL"},
      {"measurement": "Concentrations of Naloxone N-oxide in human plasma samples", "setting": "[1]; [13]", "value": "242 ng/mL and 229 ng/mL and 221 ng/mL"},
      {"measurement": "Concentrations of Naloxone N-oxide in human whole blood samples", "setting": "[1]; [13]", "value": "73.9 ng/mL and 65.5 ng/mL and 67.7 ng/mL"},
      {"measurement": "Mean concentration of Naloxone N-oxide in human plasma samples", "setting": "[1]; [14]", "value": 225, "unit": "ng/mL"},
      {"measurement": "Mean concentration of Naloxone N-oxide in human whole blood samples", "setting": "[1]; [14]", "value": 49.3, "unit": "ng/mL"},
      {"measurement": "Concentrations of Naloxone N-oxide in human plasma samples", "setting": "[1]; [14]", "value": "239 ng/mL and 226 ng/mL and 211 ng/mL"},
      {"measurement": "Concentrations of Naloxone N-oxide in human whole blood samples", "setting": "[1]; [14]", "value": "46.8 ng/mL and 52.8 ng/mL and 48.3 ng/mL"},
      {"measurement": "pKa", "setting": "[2]; Type Acid", "value": "8.55 ± 0.01"},
      {"measurement": "pKa", "setting": "[2]; Type Base", "value": "2.96 ± 0.01"},
      {"measurement": "N-oxide permeated through the skin from patch", "setting": "[3]", "value": "no detectable levels"}
    ]}
  ]
}
